Reference: patent US12098180B2, “Compositions and uses of vasoactive intestinal peptide (VIP) antagonists” (EMORY UNIVERSITY, priority 2018, dated 2024)

How the values were obtained:
acute leukemia = details: Oncoimmunology, 2017, 6(5):e1304336; cited from earlier work
[1] = system: T cells from luciferase+C57/BL6 mice; experiment: T cell proliferation in short-term culture with plate bound anti-CD3 antibody and IL-2; assay type: cell-based
Procedure: T cells from luciferase+C57/BL6 mice were harvested and cultured in 96-well plate with 1 μg/ml anti-CD3 antibody and 30 U/ml IL-2 in the presence of original VIPhyb, Ant-1, Ant-2, Ant-3, Ant-4, Ant-5, Ant-6, Ant-7 or Ant-8 at 1 μM.
T cells from luciferase+C57/BL6 mice were harvested and cultured in 96-well plate with either 0.5 μg/ml or 1 μg/ml anti-CD3 antibody and 30 U/ml IL-2 in the presence of original VIPhyb or Ant-8 at 0.5 μM, 1 μM or 3 μM.
The peptides (SEQ ID NO: 3-10 in FIG. 1) were added to short-term cultures of luciferase positive T-cells cultured in the presence of plate bound anti CD3 antibody in 96 well plates. The concentration of anti-CD3 antibody was either 0.5 mcg per ml or 1 mcg per ml. The T-cells from luciferase transgenic mice were added in the presence of low-dose IL-2 and 0.5 micromolar, 1 micromolar, or 3 micromolar concentrations of the original VIPhyb peptide or the alternative ANT-1 to ANT-8 peptide sequences were added.

[2] = system: T cells from Chronic lymphocytic leukemia (CLL) donors; experiment: Ex vivo expansion of T cells with anti-CD3/28 beads and IL-2; assay type: cell-based; details: anti-CD3/28 beads and 30 U/mL IL-2

Sequence	autologous anti-leukemia T cell response (acute leukemia)	T-cell proliferation using lower concentrations of anti-CD3 ([1]; lower anti-CD3 concentration (0.5 mcg per ml), compared to control cultures with plate bound anti-CD3 and no added peptides)	antagonist activity compared to the native VIPhyb ([1]; overall conclusion from the T-cell proliferation cultures)	T-cell proliferation at 24 hours ([1]; peptide at 0.5, 1 and 3 micromolar, compared to the original VIPhyb peptide at the same concentrations)	yields of T cells during ex vivo expansion [2]
KPRRPYTDNYTRLRKQMAVKKYLNSILN [VIPhyb, chimeric peptide VIP antagonist; six N-terminal amino acids of native VIP replaced]	enhances the autologous anti-leukemia T cell response	–	–	–	–
KPRRPYTDNYTRLRKQMAVKKYLNLILN [ANT-8, VIPhyb variant with S to L substitution at position 25]	–	more modest and not significantly different from control cultures	improved antagonist activity	enhanced T-cell proliferation	enhance yields of T cells
